These results are taken from patent publication US20240200003A1, “DEVICES AND METHODS FOR IN VITRO MODELING OF METASTATIC CANCER” (XYLYX BIO, INC., priority 2020, published 2024).

The nature of series [1]: Diffusion assay through lung ECM hydrogel. Type of series: physicochemical. An excerpt: The difference in IC50 values of the three drugs in this study are attributable to the different cellular mechanism that each drug targets as well as expression of and access to each target. Erlotinib is an inhibitor of epidermal growth factor receptor (EGFR) tyrosine kinase, whereas Etoposide inhibits DNA topoisomerase II, which prevents DNA ligation and ultimately causes DNA strands to break. KPT-185 induces apoptosis as a selective inhibitor of nuclear export (SINE) compound. […] Another important consideration for drug testing in 3D culture systems is drug permeability through the ECM and cell membrane.

Series [2] concerns Human lung adenocarcinoma A549 cells. The series can be described thus: XTT cell viability / IC50 of anti-cancer drugs, A549 cells in 3D lung tumor model. It is filed as cell-based. Particulars: for pIC50: 72 h drug. The method, then:
(§1) Cell Expansion. […] Forming 3D Lung Tumor Model. […] Drug Treatment. […] After 72 hours, cell viability was assayed. […] Cell Proliferation Assay. […] Data Analysis.
Background: Tetrazolium dyes change colour on reduction, which living cells bring about.

The subject of series [3] is Human lung adenocarcinoma Jacket cells. The series can be described thus: XTT cell viability / IC50 of anti-cancer drugs, Jacket cells in 3D lung tumor model. It is filed as cell-based. The following applies: for growth inhibition (cell viability): Jacket cells, doses 0.1-10 μM, 3D TissueSpec® Lung ECM Hydrogel and 2D plastic. The procedure: as §1
Series [4] has as its system MCF-7 and MB-231 breast cancer cells. Particulars: previous studies; cited from earlier work.
The conditions of series [5]: clinical trials; cited from earlier work.
The subject of series [6] is breast cancer cells T47-D. The series can be described thus: Viability assay of breast cancer cells embedded in TissueSpec ECM hydrogels. More on the design: dose or concentration left out as unconfirmed. It is filed as cell-based, human. The following applies: 72 hours, Bone, Liver, Lung ECM Hydrogels, Matrigel, plastic.
Experimental: Methods. Viability assays were performed on breast cancer cells T47-D embedded in TissueSpec® Bone, Liver, and Lung ECM Hydrogels and treated with Tamoxifen (20 M and 40 M) or vehicle (DMSO) for 72 hours. Matrigel and plastic were used as control substrates.
The mark [7] stands for this setting: Homo sapiens, A549, 72 h, A549 cells in Matrigel®.
Setting [8] is: Homo sapiens, A549, 72 h, A549 cells in TissueSpec® Lung ECM Hydrogel (3D).
Where [9] appears, read: Homo sapiens, A549, 72 h, A549 cells on Plastic (no ECM), 2D.
[10] abbreviates: Homo sapiens, 72 h, Jacket cells in Matrigel®, 72 h drug, read-out: IC50.
The mark [11] stands for this setting: Homo sapiens, 72 h, Jacket cells in TissueSpec® Lung ECM Hydrogel (3D), 72 h drug, read-out: IC50.
The mark [12] stands for this setting: Homo sapiens, 72 h, Jacket cells on Plastic (no ECM), 2D, 72 h drug, read-out: IC50.
[13] abbreviates: Jacket cells in TissueSpec® Lung ECM Hydrogel, reproducibility, two rounds, read-out: IC50 in two separate rounds of testing.

pIC50: −log10 of the molar value. Where “and” joins values, the source holds several entries; their conditions need not be identical. Equal entries are not always repeated. Where two headings read alike, the source gives them in different places.

For `CC1=CC(C)(C)N(C)c2cc3[o+]c4cc5c(cc4c(-c4cc(NC(=O)c6ccc(CCl)cc6)ccc4C(=O)[O-])c3cc21)C(C)=CC(C)(C)N5C.CC1=CC(C)(C)N(C)c2cc3[o+]c4cc5c(cc4c(-c4ccc(NC(=O)c6ccc(CCl)cc6)cc4C(=O)[O-])c3cc21)C(C)=CC(C)(C)N5C` [CellTracker Red CMTPX], in series [1], the “diffusion speed through TissueSpec® Lung ECM Hydrogel” value is listed as ≥ 1.3 mm/h.
Broadly, the pIC50 is −log10 of the IC50, conventionally taken in molar units. Turning to `C#Cc1cccc(Nc2ncnc3cc(OCCOC)c(OCCOC)cc23)c1` [Erlotinib], the “growth inhibition (cell viability)” value in series [2] (A549 cells, doses 0.1-10 μM, 3D TissueSpec® Lung ECM Hydrogel and plastic) was “dose-dependent growth inhibition”. Further, the pIC50 in series [2] (setting [7]) is 4.24; in series [2] (setting [8]) it was 3.87; in series [2] (setting [9]) it was 4.44; in series [3] (setting [10]), 5.06; in series [3] (setting [11]), 5.12; in series [3] (setting [12]), 5.28.
For the molecule `COc1cc([C@@H]2c3cc4c(cc3[C@@H](O[C@@H]3O[C@@H]5CO[C@@H](C)O[C@H]5[C@H](O)[C@H]3O)[C@H]3COC(=O)[C@H]23)OCO4)cc(OC)c1O` [Etoposide], the pIC50 in series [2] (setting [7]) is 4.45; in series [2] (setting [8]), 4.78; in series [2] (setting [9]), 4.39; in series [3] (setting [10]), 4.80; in series [3] (setting [11]), 5.43; in series [3] (setting [12]), 5.36. In addition, the pIC50 was 5.42 in series [3] (Homo sapiens, Jacket cells in TissueSpec® Lung ECM Hydrogel, reproducibility, two rounds, read-out: IC50 in two separate rounds of testing); 6.15 in series [3] (Jacket cells in Matrigel®, reproducibility, two rounds, read-out: IC50 in two separate rounds of testing); 5.40 in series [3] (setting [13]). Moreover, the “growth inhibition (cell viability)” value in series [3] was “dose-dependent growth inhibition”.
For the molecule `COc1cc(-c2ncn(/C=C\C(=O)OC(C)C)n2)cc(C(F)(F)F)c1` [KPT-185], the pIC50 in series [2] (A549 cells in Matrigel®) is 5.38; in series [2] (A549 cells in TissueSpec® Lung ECM Hydrogel (3D)), 5.64; in series [2] (A549 cells on Plastic (no ECM), 2D) it was 5.06; in series [3] (Jacket cells in Matrigel®, 72 h drug, read-out: IC50), 5.37; in series [3] (Jacket cells in TissueSpec® Lung ECM Hydrogel (3D), 72 h drug, read-out: IC50) it was 6.40; in series [3] (setting [13]) it was 6.40. For the same molecule, in series [3] (Jacket cells on Plastic (no ECM), 2D, 72 h drug, read-out: IC50), the pIC50 is 6.70. Moreover, in series [3], the “growth inhibition (cell viability)” value is “dose-dependent growth inhibition”.
For `COc1cccc2c1C(=O)c1c(O)c3c(c(O)c1C2=O)C[C@@](O)(C(=O)CO)C[C@@H]3O[C@H]1C[C@H](N)[C@H](O)[C@H](C)O1` [doxorubicin], the “resistance when cultured in Matrigel®” value in series [4] is listed as “more resistant to doxorubicin when cultured in Matrigel®”.
With `CNC(=O)c1cc(Oc2ccc(NC(=O)Nc3ccc(Cl)c(C(F)(F)F)c3)cc2)ccn1` [sorafenib], in series [5], the “HCC patient plasma concentration” value is 2 mg/L and 4 μM.
As to `CC/C(=C(\c1ccccc1)c1ccc(OCCN(C)C)cc1)c1ccccc1` [tamoxifen, Tamoxifen], the “differential viability response by substrate” value in series [6] was “cells embedded in lung and bone ECM are more resistant than cells embedded in liver, matrigel or plastic”.
